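Exposure lasted 48 hours, with cells grown in 96-well plates and compounds tested at five concentrations. Here, GI50 denotes the concentration required for 50% inhibition of growth.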 Activity calls are given as the source filed them. No stated cut-off is given here; in the data, active = GI50 up to about 1.1 µM and inactive = higher.
Assays:
Assay in all cases: DTP human tumour cell line panel, 48 h
MDA-MB-231 = test system: MDA-MB-231
SK-MEL-5 = test system: SK-MEL-5
A498 = test system: A498
LOX IMVI = test system: LOX IMVI
UACC-62 = test system: UACC-62
HT-29 = test system: HT-29
SNB-75 = test system: SNB-75
SF-539 = test system: SF-539
UO-31 = test system: UO-31
NCI-H23 = test system: NCI-H23
NCI-H460 = test system: NCI-H460
SN12C = test system: SN12C
BT-549 = test system: BT-549
MOLT-4 = test system: MOLT-4
SW-620 = test system: SW-620
OVCAR-4 = test system: OVCAR-4
T47D = test system: T47D
MDA-MB-435 = test system: MDA-MB-435
A549 = test system: A549
786-0 = test system: 786-0
COLO 205 = test system: COLO 205
HCC 2998 = test system: HCC 2998
DU-145 = test system: DU-145
SK-MEL-2 = test system: SK-MEL-2
HOP-62 = test system: HOP-62
M14 = test system: M14
NCI-H226 = test system: NCI-H226
MCF7 = test system: MCF7
ACHN = test system: ACHN
K562 = test system: K562
HCT-15 = test system: HCT-15
SNB-19 = test system: SNB-19
HCT-116 = test system: HCT-116
OVCAR-5 = test system: OVCAR-5
CAKI-1 = test system: CAKI-1
RXF 393 = test system: RXF 393
IGROV-1 = test system: IGROV-1
Malme-3M = test system: Malme-3M
NCI/ADR-RES = test system: NCI/ADR-RES
TK-10 = test system: TK-10
NCI-H522 = test system: NCI-H522
OVCAR-3 = test system: OVCAR-3
EKVX = test system: EKVX
U-251 = test system: U-251
HOP-92 = test system: HOP-92
OVCAR-8 = test system: OVCAR-8
SK-MEL-28 = test system: SK-MEL-28
UACC-257 = test system: UACC-257
Hs-578T = test system: Hs-578T
SK-OV-3 = test system: SK-OV-3
PC-3 = test system: PC-3
SF-268 = test system: SF-268
KM12 = test system: KM12
CCRF-CEM = test system: CCRF-CEM
RPMI-8226 = test system: RPMI-8226
HL-60 = test system: HL-60
SR = test system: SR

Structure (SMILES): O=[N+]([O-])c1ccc2nc3ccccc3cc2c1
- GI50 (MDA-MB-231): 2.55 µM (inactive)
- GI50 (SK-MEL-5): 3.1 µM (inactive)
- GI50 (A498): 1.5 µM (inactive)
- GI50 (LOX IMVI): 2.04 µM (inactive)
- GI50 (UACC-62): 1.19 µM (inactive)
- GI50 (HT-29): 2 µM (inactive)
- GI50 (SNB-75): 3.7 µM (inactive)
- GI50 (SF-539): 2.1 µM (inactive)
- GI50 (UO-31): 3.4 µM (inactive)
- GI50 (NCI-H23): 2.28 µM (inactive)
- GI50 (NCI-H460): 3.03 µM (inactive)
- GI50 (SN12C): 1.96 µM (inactive)
- GI50 (BT-549): 4.05 µM (inactive)
- GI50 (MOLT-4): < 0.01 µM (active)
- GI50 (SW-620): 1.85 µM (inactive)
- GI50 (OVCAR-4): 2.48 µM (inactive)
- GI50 (T47D): 3.63 µM (inactive)
- GI50 (MDA-MB-435): 1.46 µM (inactive)
- GI50 (A549): 2.5 µM (inactive)
- GI50 (786-0): 2.38 µM (inactive)
- GI50 (COLO 205): 3.56 µM (inactive)
- GI50 (HCC 2998): 1.63 µM (inactive)
- GI50 (DU-145): 2.82 µM (inactive)
- GI50 (SK-MEL-2): 4.73 µM (inactive)
- GI50 (HOP-62): 2.26 µM (inactive)
- GI50 (M14): 3.33 µM (inactive)
- GI50 (NCI-H226): 2.45 µM (inactive)
- GI50 (MCF7): 2.39 µM (inactive)
- GI50 (ACHN): 3.04 µM (inactive)
- GI50 (K562): 0.0782 µM (active)
- GI50 (HCT-15): 1.37 µM
- GI50 (SNB-19): 2.99 µM (inactive)
- GI50 (HCT-116): 1.65 µM (inactive)
- GI50 (OVCAR-5): 2.48 µM (inactive)
- GI50 (CAKI-1): 0.0149 µM (active)
- GI50 (RXF 393): 13.8 µM (inactive)
- GI50 (IGROV-1): 1.91 µM (inactive)
- GI50 (Malme-3M): 2.9 µM (inactive)
- GI50 (NCI/ADR-RES): 1.51 µM (inactive)
- GI50 (TK-10): 1.64 µM (inactive)
- GI50 (NCI-H522): 2.81 µM (inactive)
- GI50 (OVCAR-3): 0.342 µM (active)
- GI50 (EKVX): 5.31 µM (inactive)
- GI50 (U-251): 2.69 µM (inactive)
- GI50 (HOP-92): 3.28 µM (inactive)
- GI50 (OVCAR-8): 1.26 µM (inactive)
- GI50 (SK-MEL-28): 2.57 µM (inactive)
- GI50 (UACC-257): 1.34 µM (inactive)
- GI50 (Hs-578T): 3.21 µM (inactive)
- GI50 (SK-OV-3): 4.21 µM (inactive)
- GI50 (PC-3): 1.95 µM (inactive)
- GI50 (SF-268): 6.44 µM (inactive)

Structure (SMILES): Cc1ccc(NC(Nc2ccc(C)cc2C)=C(C(Cl)=C(Cl)Cl)[N+](=O)[O-])c(C)c1
- GI50 (MDA-MB-231): 15.5 µM (inactive)
- GI50 (SK-MEL-5): 4.63 µM (inactive)
- GI50 (A498): 21.3 µM (inactive)
- GI50 (LOX IMVI): 5.83 µM (inactive)
- GI50 (UACC-62): 14.2 µM (inactive)
- GI50 (HT-29): 17.5 µM (inactive)
- GI50 (SNB-75): 9.35 µM (inactive)
- GI50 (SF-539): 21.3 µM (inactive)
- GI50 (UO-31): 13.7 µM (inactive)
- GI50 (NCI-H23): 6.22 µM (inactive)
- GI50 (NCI-H460): 13.9 µM (inactive)
- GI50 (SN12C): 14.7 µM (inactive)
- GI50 (BT-549): 14.2 µM (inactive)
- GI50 (MOLT-4): 10.7 µM (inactive)
- GI50 (SW-620): 16.8 µM (inactive)
- GI50 (OVCAR-4): 15.7 µM (inactive)
- GI50 (T47D): 10.5 µM (inactive)
- GI50 (MDA-MB-435): 4.89 µM (inactive)
- GI50 (A549): 12.6 µM (inactive)
- GI50 (786-0): 16.1 µM (inactive)
- GI50 (COLO 205): 17.5 µM (inactive)
- GI50 (HCC 2998): 18 µM (inactive)
- GI50 (DU-145): 14.7 µM (inactive)
- GI50 (KM12): 15.2 µM (inactive)
- GI50 (HOP-62): 16.9 µM (inactive)
- GI50 (M14): 5.36 µM (inactive)
- GI50 (NCI-H226): 14.6 µM (inactive)
- GI50 (MCF7): 38.7 µM (inactive)
- GI50 (CCRF-CEM): 3.35 µM (inactive)
- GI50 (ACHN): 15.2 µM (inactive)
- GI50 (K562): 9.53 µM (inactive)
- GI50 (HCT-15): 14.9 µM
- GI50 (SNB-19): 16.2 µM (inactive)
- GI50 (HCT-116): 13.7 µM (inactive)
- GI50 (CAKI-1): 20.6 µM (inactive)
- GI50 (RXF 393): 15.2 µM (inactive)
- GI50 (IGROV-1): 14.1 µM (inactive)
- GI50 (Malme-3M): 16.9 µM (inactive)
- GI50 (NCI/ADR-RES): 7.21 µM (inactive)
- GI50 (RPMI-8226): 19.2 µM (inactive)
- GI50 (TK-10): 16.9 µM (inactive)
- GI50 (NCI-H522): 11.1 µM (inactive)
- GI50 (HL-60): 4.12 µM (inactive)
- GI50 (SR): 2.9 µM (inactive)
- GI50 (OVCAR-3): 15.4 µM (inactive)
- GI50 (EKVX): 15.1 µM (inactive)
- GI50 (HOP-92): 12.4 µM (inactive)
- GI50 (OVCAR-8): 16.2 µM (inactive)
- GI50 (SK-MEL-28): 19.9 µM (inactive)
- GI50 (UACC-257): 15.9 µM (inactive)
- GI50 (Hs-578T): 22.8 µM (inactive)
- GI50 (SK-OV-3): 20 µM (inactive)
- GI50 (PC-3): 12.4 µM (inactive)
- GI50 (SF-268): 17.3 µM (inactive)
